Source: patent US20060063759A1, “Tricyclic steroid hormone nuclear receptor modulators” (priority 2002, published 2006)

Key:
[1] = biological target: T1, human MR (Homo sapiens, UniProt P08235); experiment: Mineralocorticoid Receptor Binding Assay ([3H]-aldosterone); settings: [3H]-aldosterone binding, human MR expressed in Sf9 cells; read-out: MR Ki
T1 construct: The full length human MR gene is cloned from a human kidney or human brain cDNA library; His tag from the pAcHLT vector (own knowledge); made in house; host or cells: Sf9 insect cells (baculovirus, pAcHLT transfer vector)
T1 sequence (P08235 1-984): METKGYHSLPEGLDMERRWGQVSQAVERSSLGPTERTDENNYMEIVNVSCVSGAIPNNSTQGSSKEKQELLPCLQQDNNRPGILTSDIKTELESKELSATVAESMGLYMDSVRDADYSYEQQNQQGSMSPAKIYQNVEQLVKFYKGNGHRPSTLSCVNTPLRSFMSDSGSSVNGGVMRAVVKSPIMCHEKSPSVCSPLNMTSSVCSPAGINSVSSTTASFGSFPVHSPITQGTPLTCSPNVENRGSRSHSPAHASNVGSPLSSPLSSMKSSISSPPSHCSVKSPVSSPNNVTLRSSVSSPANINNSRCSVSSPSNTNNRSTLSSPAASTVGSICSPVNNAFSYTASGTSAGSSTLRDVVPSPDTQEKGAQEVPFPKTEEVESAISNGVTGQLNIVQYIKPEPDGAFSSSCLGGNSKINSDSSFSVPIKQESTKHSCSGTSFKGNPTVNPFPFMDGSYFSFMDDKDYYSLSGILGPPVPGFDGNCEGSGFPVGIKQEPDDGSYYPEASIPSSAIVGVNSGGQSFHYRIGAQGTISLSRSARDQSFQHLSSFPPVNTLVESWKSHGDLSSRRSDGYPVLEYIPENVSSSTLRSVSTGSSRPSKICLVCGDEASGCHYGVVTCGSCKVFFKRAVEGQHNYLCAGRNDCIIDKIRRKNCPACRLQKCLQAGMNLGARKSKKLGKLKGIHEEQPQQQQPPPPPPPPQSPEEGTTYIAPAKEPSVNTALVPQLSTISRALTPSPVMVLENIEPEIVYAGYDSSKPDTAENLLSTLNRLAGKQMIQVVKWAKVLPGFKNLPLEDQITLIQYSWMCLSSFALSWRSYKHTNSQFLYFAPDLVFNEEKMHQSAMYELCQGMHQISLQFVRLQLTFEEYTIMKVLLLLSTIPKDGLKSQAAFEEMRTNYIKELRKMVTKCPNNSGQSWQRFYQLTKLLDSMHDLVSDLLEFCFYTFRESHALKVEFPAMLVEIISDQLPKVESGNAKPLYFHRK
Method in brief: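 Lysate supernatant of Sf9 cells expressing full-length human MR (20-25 μg protein) was incubated with 0.5 nM [3H]-aldosterone and test compound in molybdate/Tris/phosphate/glycerol buffer, pH 7.5, ~16 h at 4 °C. Bound ligand was filtered and counted by scintillation; IC50 is the concentration halving [3H]-aldosterone binding.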

[2] = biological target: T2, glucocorticoid receptor (Homo sapiens, UniProt P04150); experiment: Glucocorticoid Receptor Binding Assay ([3H]-dexamethasone, A549 cell extract); settings: [3H]-dexamethasone binding, read-out: GR Ki
T2 construct: containing 50-200 ug of A549 cell extract and 1.86 nM [^3H]-dexamethasone; host or cells: A549 human lung epithelial cells (sonicated cell extract)
T2 sequence (P04150 1-777): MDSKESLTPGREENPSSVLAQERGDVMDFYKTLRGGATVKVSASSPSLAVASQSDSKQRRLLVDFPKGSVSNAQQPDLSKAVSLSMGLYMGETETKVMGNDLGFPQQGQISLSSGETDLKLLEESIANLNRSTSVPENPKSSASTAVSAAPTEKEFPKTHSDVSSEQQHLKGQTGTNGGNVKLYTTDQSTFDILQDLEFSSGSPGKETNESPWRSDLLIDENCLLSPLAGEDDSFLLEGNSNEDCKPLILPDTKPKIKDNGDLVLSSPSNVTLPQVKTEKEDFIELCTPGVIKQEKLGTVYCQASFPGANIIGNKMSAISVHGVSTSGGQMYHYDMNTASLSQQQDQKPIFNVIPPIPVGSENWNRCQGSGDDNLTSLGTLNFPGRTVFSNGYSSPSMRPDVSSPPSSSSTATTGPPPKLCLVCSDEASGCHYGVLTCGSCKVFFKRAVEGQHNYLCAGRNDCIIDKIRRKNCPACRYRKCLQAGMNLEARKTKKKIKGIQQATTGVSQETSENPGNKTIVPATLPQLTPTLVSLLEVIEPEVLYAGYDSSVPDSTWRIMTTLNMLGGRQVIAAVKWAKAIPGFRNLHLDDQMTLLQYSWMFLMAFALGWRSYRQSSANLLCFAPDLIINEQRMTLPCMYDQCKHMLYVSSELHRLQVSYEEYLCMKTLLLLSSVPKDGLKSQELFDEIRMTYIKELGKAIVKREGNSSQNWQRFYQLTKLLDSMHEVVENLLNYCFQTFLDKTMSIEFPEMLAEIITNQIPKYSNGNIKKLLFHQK
Method in brief: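 A549 cell extract (50–200 ug) incubated with 1.86 nM [3H]-dexamethasone and test compound for 16 h at 4 °C in Tris-HCl pH 7.2 buffer with glycerol and molybdate. Unbound radioligand removed by dextran-coated charcoal, then supernatant bound counts measured by scintillation.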

| SMILES | Ki [1] [nM] | Ki [2] [nM] |
| --- | --- | --- |
| CS(=O)(=O)Nc1cccc(/C=C2/c3ccc(F)cc3CCc3ncsc32)c1 [Example 563] | < 500 | < 500 |
| O=c1[nH]c2ccc(/C=C3\c4ccc(F)cc4CCc4ncsc43)cc2[nH]1 [Example 565] | < 500 | < 10000 |
| CS(=O)(=O)Nc1cccc(/C=C2\c3cccnc3CCc3c(Cl)cccc32)c1 [Example 567] | < 500 | < 10000 |
| CS(=O)(=O)Nc1cccc(/C=C2\c3cccnc3CCc3c(F)cccc32)c1 [Example 574] | < 500 | < 500 |
| Fc1cccc2c1CCc1ncccc1C2=Cc1cccc(Cl)c1 [Example 575] | < 500 | < 500 |
| Fc1ccc2c(c1)CCc1ncccc1/C2=C/c1ccccc1F [Example 578] | < 500 | < 10000 |
| Fc1cccc(/C=C2\c3ccc(F)cc3CCc3ncccc32)c1 [Example 579] | < 500 | < 500 |
| Fc1ccc(/C=C2\c3ccc(F)cc3CCc3ncccc32)cc1 [Example 580] | < 500 | < 10000 |
| Fc1ccc(/C=C2/c3ccc(F)cc3CCc3ncccc32)cc1 [Example 581] | < 500 | < 10000 |
| COC(=O)c1cccc(/C=C2/c3ccc(F)cc3CCc3ncccc32)c1 [Example 586] | < 500 | < 10000 |
| COC(=O)c1ccc(/C=C2/c3ccc(F)cc3CCc3ncccc32)cc1 [Example 587] | < 500 | < 10000 |
| COC(=O)c1ccccc1/C=C1\c2ccc(F)cc2CCc2ncccc21 [Example 588] | < 500 | < 500 |
| COC(=O)c1ccccc1/C=C1/c2ccc(F)cc2CCc2ncccc21 [Example 589] | < 500 | < 500 |
| N#Cc1ccc2c(n1)CCc1cc(F)ccc1/C2=C\c1ccc2[nH]c(=O)[nH]c2c1 [Example 591] | < 500 | < 10000 |
| O=c1[nH]c2cc(/C=C3\c4ccc(F)cc4CCc4ncccc43)ccc2n1CCN1CCOCC1 [Example 596] | < 500 | < 10000 |
| CS(=O)(=O)Nc1cc(F)cc(/C=C2\c3ccc(F)cc3CCc3nc(CF)ccc32)c1 [Example 597] | < 500 | < 500 |
| CS(=O)(=O)Nc1cccc(C=C2c3ccccc3C3CC3c3ccccc32)c1 (stereo not drawn) [Example 602] | < 500 | < 500 |
| O=c1[nH]c2cc(C=C3c4ccccc4C4CC4c4ccccc43)ccc2s1 (stereo not drawn) [Example 605] | < 500 | < 500 |
| O=c1[nH]c2cc(C=C3c4ccccc4[C@H]4C[C@H]4c4ccccc43)ccc2o1 [Example 606] | < 500 | < 500 |
| O=c1[nH]c2cc(/C=C3\c4ccccc4COc4cc(F)ccc43)ccc2n1CCN1CCOCC1 [Example 607, 5-(3-Fluoro-6H-dibenzo[b,e]oxepin-11-ylidenemethyl)-1-(2-morpholin-4-yl-ethyl)-1,3-dihydro-benzoimidazol-2-one] | < 500 | < 1000 |
| O=c1[nH]c2cc(/C=C3\c4ccccc4COc4cc(F)ccc43)ccc2n1C1CC1 [Example 609, 1-cyclopropyl-5-(3-fluoro-6H-dibenzo[b,e]oxepin-11-ylidenemethyl)-1,3-dihydro-benzoimidazol-2-one] | < 500 | < 1000 |

Continued, values first:

| Ki [1] [nM] | Ki [2] [nM] | SMILES |
| --- | --- | --- |
| < 500 | < 500 | O=c1[nH]c2cc(/C=C3\c4ccccc4CCc4ncsc43)ccc2o1 [Example 562] |
| < 500 | < 500 | CS(=O)(=O)Nc1cccc(/C=C2\c3ccc(F)cc3CCc3ncsc32)c1 [Example 564] |
| < 500 | < 10000 | O=c1[nH]c2ccc(/C=C3/c4ccc(F)cc4CCc4ncsc43)cc2[nH]1 [Example 566] |
| < 500 | < 10000 | CS(=O)(=O)Nc1cccc(/C=C2/c3ccc(Cl)cc3CCc3ncccc32)c1 [Example 569] |
| < 500 | < 1000 | CS(=O)(=O)Nc1cccc(/C=C2\c3ccc(Cl)cc3CCc3ncccc32)c1 [Example 570] |
| < 500 | < 500 | CS(=O)(=O)Nc1cccc(/C=C2/c3cccnc3CCc3c(Cl)cccc32)c1 [Example 573] |
| < 500 | < 10000 | CS(=O)(=O)Nc1cccc(/C=C2/c3cccnc3CCc3c(F)cccc32)c1 [Example 576] |
| < 500 | < 10000 | Fc1ccc2c(c1)CCc1ncccc1/C2=C\c1ccccc1F [Example 582] |
| < 500 | < 10000 | Fc1cccc(/C=C2/c3ccc(F)cc3CCc3ncccc32)c1 [Example 583] |
| < 1000 | < 10000 | COC(=O)c1ccc(/C=C2\c3ccc(F)cc3CCc3ncccc32)cc1 [Example 584] |
| < 500 | < 10000 | COC(=O)c1cccc(/C=C2\c3ccc(F)cc3CCc3ncccc32)c1 [Example 585] |
| < 500 | < 1000 | Fc1ccc2c(c1)CCc1ncccc1/C2=C/c1cccc(C(F)(F)F)c1 [Example 590] |
| < 500 | < 10000 | CC(C)n1c(=O)[nH]c2cc(/C=C3\c4ccc(F)cc4CCc4ncccc43)ccc21 [Example 592] |
| < 500 | < 10000 | O=c1[nH]c2cc(/C=C3\c4ccc(F)cc4CCc4ncccc43)ccc2n1C1CC1 [Example 593] |
| < 500 | < 500 | CS(=O)(=O)Nc1cc(F)cc(/C=C2/c3ccc(F)cc3CCc3nc(C(F)F)ccc32)c1 [Example 594] |
| < 500 | < 500 | CS(=O)(=O)Nc1cc(F)cc(/C=C2\c3ccc(F)cc3CCc3nc(C(F)F)ccc32)c1 [Example 595] |
| < 500 | < 500 | CS(=O)(=O)Nc1cc(F)cc(/C=C2/c3ccc(F)cc3CCc3nc(CF)ccc32)c1 [Example 598] |
| < 500 | < 1000 | Nc1cccc(C=C2c3ccccc3[C@H]3C[C@H]3c3ccccc32)c1 [Example 604] |
| < 500 | < 10000 | O=c1[nH]c2cc(/C=C3\c4ccccc4COc4cc(F)ccc43)ccc2n1CCCN1CCOCC1 [Example 608, 5-(3-fluoro-6H-dibenzo[b,e]oxepin-11-ylidenemethyl)-1-(3-morpholin-4-yl-propyl)-1,3-dihydro-benzoimidazol-2-one] |
| < 500 | < 10000 | CC(C)n1c(=O)[nH]c2cc(/C=C3\c4ccccc4COc4cc(F)ccc43)ccc21 [Example 612, 5-(3-Fluoro-6H-dibenzo[b,e]oxepin-11-ylidenemethyl)-1-isopropyl-1,3-dihydro-benzoimidazol-2-one] |
| < 500 | < 500 | O=c1[nH]c2ccc(/C=C3\c4ccc(F)cc4COc4cc(F)ccc43)cc2[nH]1 [Example 613, 5-(3,8-Difluoro-6H-dibenzo[b,e]oxepin-11-ylidenemethyl)-1,3-dihydro-benzoimidazol-2-one] |
